Reference: patent publication US20260167674A1, “ACE2 […] SEQUENCES” (priority 2023, published 2026)
No end group written: not given here.

Tests used:
SARS-COV-2 RBD = SARS-COV-2 RBD (Severe acute respiratory syndrome coronavirus 2, UniProt P0DTC2); test: biochemical; format: binding
[1] = biological target: SARS-COV-2 RBD protein with His-tag, purified by recombinant expression in Pichia pastoris (SARS-COV-2), P0DTC2; test: SPR at 25 C; His-tagged RBD captured by anti-His tag, peptide flowed over

Molecule | Kd (SARS-COV-2 RBD) [pM] | Kd [1] [pM]
EENAKTFLNNFNQEAEDLSYQSSLASWNYNT [peptide4] | 1.26 to 8.16 | –
QEQAQTYLDGYNKTYQDLVYKDNLAQWTLNT [peptide2] | 3.55 to 4.09 | –
QEQAQTYLDGYNKTYQDLVYKDNLAQWTLNT (modifications not checked) [peptide2 (WP_072363071.1:30-60 M2 family metallopeptidase [Chitinophaga sancti])] | – | 3.55 to 4.09
EENAKTFLNNFNQEAEDLSYQSSLASWNYNT (modifications not checked) [peptide4 (BAB40431.1:22-52 angiotensin-converting enzyme-related carboxypeptidase [Mus musculus])] | – | 1.26 to 8.16
